Patent US8071605B2, “Piperidine compounds for use in the treatment of bacterial infections” (AstraZeneca AB, priority 2008, dated 2011)

target: S. aureus GyrB ATPase (Staphylococcus aureus, UniProt P0A0K8); test: S. aureus GyrB ATPase inhibition (ammonium molybdate/malachite green phosphate detection); type: biochemical; details: compound concentration of 1 μM (unless otherwise noted)
Experimental: E. coli GyrB ATPase Inhibition Activity: Compounds can be tested for inhibition of E. coli GyrB ATPase activity using an ammonium molybdate/malachite green-based phosphate detection assay (Lanzetta, P. A., L. J. Alvarez, P. S. Reinach, and O. A. Candia, 1979, 100: 95-97). Assays can be performed in multiwell plates in 30 μl reactions containing: 50 mM Hepes buffer pH 7.5, 75 mM ammonium acetate, 8.0 mM magnesium chloride, 0.5 mM ethylenediaminetetraacetic acid, 5% glycerol, 1 mM 1,4-Dithio-DL-threitol, 200 nM bovine serum albumin, 1.6 μg/ml sheared salmon sperm DNA, 400 pM E. coli GyrA, 400 pM E. coli GyrB, 250 μM ATP, and compound in dimethylsulfoxide. Reactions can be quenched with 30 μl of ammonium molybdate/malachite green detection reagent containing 1.2 mM malachite green hydrochloride, 8.5 mM ammonium molybdate tetrahydrate, and 1 M hydrochloric acid. Plates can be read in an absorbance plate reader at 650 nm and percent inhibition values are calculated using dimethylsulfoxide (2%)-containing reactions as 0% inhibition and EDTA-containing (2.4 μM) reactions as 100% inhibition controls. An IC50 measurement of compound potency for each compound can be determined from reactions performed in the presence of 10 different compound concentrations. E. coli Topoisomerase IV ATPase Inhibition Activity: Compounds can be tested for inhibition of E. coli topoisomerase IV ATPase activity as described above for E. coli GyrB except the 30 μl reactions contained the following: 20 mM TRIS buffer pH 8, 50 mM ammonium acetate, 8 mM magnesium chloride, 5% glycerol, 5 mM 1,4-Dithio-DL-threitol, 0.005% Brij-35, 5 μg/ml sheared salmon sperm DNA, 500 pM E. coli ParC, 500 pM E. coli ParE, 160 μM ATP, and compound in dimethylsulfoxide. An IC50 measurement of compound potency for each compound can be determined from reactions performed in the presence of 10 different compound concentrations. S. aureus GyrB ATPase Inhibition Activity: Compounds may be tested for inhibition of S. aureus GyrB ATPase activity using an ammonium molybdate/malachite green-based phosphate detection assay (Lanzetta, P. A., L. J. Alvarez, P. S. Reinach, and O. A. Candia, 1979, 100: 95-97). Assays can be performed in multiwell plates in 30 μl reactions containing: 50 mM Hepes buffer pH 7.5, 75 mM ammonium acetate, 8.0 mM magnesium chloride, 0.5 mM ethylenediaminetetraacetic acid, 5% glycerol, 1.0 mM 1,4-Dithio-DL-threitol, 200 nM bovine serum albumin, 1.0 μg/ml sheared salmon sperm DNA, 250 pM E. coli GyrA, 250 pM S. aureus GyrB, 250 μM ATP, and compound in dimethylsulfoxide. Reactions can be quenched with 30 μl of ammonium molybdate/malachite green detection reagent containing 1.2 mM malachite green hydrochloride, 8.5 mM ammonium molybdate tetrahydrate, and 1 M hydrochloric acid. Plates can be read in an absorbance plate reader at 650 nm and percent inhibition values can be calculated using dimethylsulfoxide (2%)-containing reactions as 0% inhibition and EDTA-containing (2.4 μM) reactions as 100% inhibition controls. An IC50 measurement of compound potency for each compound can be determined from reactions performed in the presence of 10 different compound concentrations.
Compounds of the invention were tested in an assay substantially similar to the assay described above for measuring the inhibition of S. aureus GyrB ATPase. Percent inhibition of S. aureus GyrB ATPase at a compound concentration of 1 μM (unless otherwise noted) is disclosed in the following table: […]

Chain of S. aureus GyrB ATPase (P0AES4 whole entry): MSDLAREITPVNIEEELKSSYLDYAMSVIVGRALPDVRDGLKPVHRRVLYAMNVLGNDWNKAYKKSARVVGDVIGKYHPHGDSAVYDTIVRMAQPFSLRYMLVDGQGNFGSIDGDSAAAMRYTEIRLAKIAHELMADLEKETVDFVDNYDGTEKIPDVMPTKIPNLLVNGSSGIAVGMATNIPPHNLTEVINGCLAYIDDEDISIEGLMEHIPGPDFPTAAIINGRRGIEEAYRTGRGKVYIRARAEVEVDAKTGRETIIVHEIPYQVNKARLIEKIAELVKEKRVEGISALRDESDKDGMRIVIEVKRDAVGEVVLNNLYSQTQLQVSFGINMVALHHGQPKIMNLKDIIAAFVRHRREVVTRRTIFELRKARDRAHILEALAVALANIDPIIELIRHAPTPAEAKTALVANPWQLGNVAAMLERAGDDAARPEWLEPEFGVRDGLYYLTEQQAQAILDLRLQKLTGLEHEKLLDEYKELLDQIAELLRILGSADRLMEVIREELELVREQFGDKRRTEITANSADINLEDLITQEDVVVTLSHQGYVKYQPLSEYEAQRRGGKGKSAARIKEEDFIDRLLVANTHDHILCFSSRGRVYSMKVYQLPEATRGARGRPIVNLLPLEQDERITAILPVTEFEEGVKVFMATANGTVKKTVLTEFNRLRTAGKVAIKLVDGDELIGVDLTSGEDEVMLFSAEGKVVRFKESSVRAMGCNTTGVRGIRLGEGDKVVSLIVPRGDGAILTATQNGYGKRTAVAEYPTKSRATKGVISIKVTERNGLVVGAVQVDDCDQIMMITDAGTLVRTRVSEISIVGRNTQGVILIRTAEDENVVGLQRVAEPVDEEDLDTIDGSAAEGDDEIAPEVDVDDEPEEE
Chain of S. aureus GyrB ATPase (P0A0K8 whole entry): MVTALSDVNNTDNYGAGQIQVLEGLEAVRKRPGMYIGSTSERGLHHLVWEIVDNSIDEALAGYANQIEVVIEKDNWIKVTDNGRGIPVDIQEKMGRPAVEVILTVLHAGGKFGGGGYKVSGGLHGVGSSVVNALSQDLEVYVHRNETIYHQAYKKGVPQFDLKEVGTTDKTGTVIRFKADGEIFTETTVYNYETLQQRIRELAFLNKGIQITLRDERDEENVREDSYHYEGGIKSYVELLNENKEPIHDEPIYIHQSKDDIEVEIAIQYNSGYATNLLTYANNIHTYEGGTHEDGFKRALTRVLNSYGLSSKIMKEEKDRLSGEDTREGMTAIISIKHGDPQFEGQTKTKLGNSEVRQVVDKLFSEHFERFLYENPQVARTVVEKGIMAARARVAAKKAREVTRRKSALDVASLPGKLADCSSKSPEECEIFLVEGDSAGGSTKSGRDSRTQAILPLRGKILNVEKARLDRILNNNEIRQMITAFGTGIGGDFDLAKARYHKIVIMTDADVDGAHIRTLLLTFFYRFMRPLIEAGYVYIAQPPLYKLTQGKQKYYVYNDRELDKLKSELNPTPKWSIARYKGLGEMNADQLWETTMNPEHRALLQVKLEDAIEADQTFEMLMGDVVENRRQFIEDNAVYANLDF

| SMILES | inhibition at 1 µM |
| --- | --- |
| CCO[C@H]1CN(c2nc(-c3ncccc3F)c(C(=O)O)s2)CC[C@H]1NC(=O)c1[nH]c(C)c(Cl)c1C#N [Example 14] | 91% |
| COCCn1ccnc1-c1nc(N2CC[C@@H](NC(=O)c3[nH]c(C)c(Cl)c3C#N)[C@@H](C)C2)sc1C(=O)O [Example 27] | 102% |
| CCO[C@H]1CN(c2nc(-c3ncnn3C)c(C(=O)O)s2)CC[C@H]1NC(=O)c1[nH]c(C)c(Cl)c1C#N [Example 12] | 106% |
| CCCO[C@H]1CN(c2nc(-c3nccn3CCOC)c(C(=O)O)s2)CC[C@H]1NC(=O)c1[nH]c(C)c(Cl)c1Cl [Example 216, 2-[(3S,4R)-4-{[(3,4-dichloro-5-methyl-1H-pyrrol-2-yl)carbonyl]amino}-3-propoxypiperidin-1-yl]-4-[1-(2-methoxyethyl)-1H-imidazol-2-yl]-1,3-thiazole-5-carboxylic acid] | 109% |
| CO[C@H]1CN(c2nc(-c3cnc(NCCN4CCNC4=O)cn3)c(C(=O)O)s2)CC[C@H]1NC(=O)c1[nH]c(C)c(Cl)c1Cl [Example 131] | 108% |
| CCCO[C@H]1CN(c2nc(-c3ncccc3F)c(C(=O)O)s2)CC[C@H]1NC(=O)c1cc(Cl)c(C)[nH]1 [Example 202, 2-[(3S,4R)-4-{[(4-chloro-5-methyl-1H-pyrrol-2-yl)carbonyl]amino}-3-propoxypiperidin-1-yl]-4-(3-fluoropyridin-2-yl)-1,3-thiazole-5-carboxylic acid] | 103% |
| Cc1[nH]c(C(=O)N[C@@H]2CCN(c3nc(-c4ncnn4C)c(C(=O)O)s3)C[C@@H]2C)cc1Cl [Example 19] | 112% |
| CCO[C@H]1CN(c2nc(-c3cnccn3)c(C(=O)O)s2)CC[C@H]1NC(=O)c1cc(Cl)c(C)[nH]1 [Example 18] | 108% |
| CCN1CCN(c2ccnc(-c3nc(N4CC[C@@H](NC(=O)c5[nH]c(C)c(Cl)c5Cl)[C@@H](OC)C4)sc3C(=O)O)n2)CC1 [Example 193, 2-[(3S,4R)-4-{[(3,4-dichloro-5-methyl-1H-pyrrol-2-yl)carbonyl]amino}-3-methoxypiperidin-1-yl]-4-[4-(4-ethylpiperazin-1-yl)pyrimidin-2-yl]-1,3-thiazole-5-carboxylic acid] | 109% |
| CCO[C@H]1CN(c2nc(-c3cnc(N4CCN(CC5CCCN(C)C5)CC4)cn3)c(C(=O)O)s2)CC[C@H]1NC(=O)c1[nH]c(C)c(Cl)c1Cl (stereo partly drawn) [Example 97] | 112% |
| Cc1[nH]c(C(=O)N[C@@H]2CCN(c3nc(-c4ncccc4F)c(C(=O)O)s3)C[C@@H]2C)cc1Cl [Example 20] | 118% |
| C=CCO[C@H]1CN(c2nc(-c3ncnn3C)c(C(=O)O)s2)CC[C@H]1NC(=O)c1[nH]c(C)c(Cl)c1Cl [Example 1, 2-[(3S,4R)-4-{[(3,4-dichloro-5-methyl-1H-pyrrol-2-yl)carbonyl]amino}-3-(prop-2-en-1-yloxy)piperidin-1-yl]-4-(1-methyl-1H-1,2,4-triazol-5-yl)-1,3-thiazole-5-carboxylic acid] | 99% |
| Cc1[nH]c(C(=O)N[C@@H]2CCN(c3nc(-c4cnc(N5CCN(CC6CCCO6)CC5)cn4)c(C(=O)O)s3)C[C@@H]2C)c(Cl)c1Cl (stereo partly drawn) [Example 183, 2-[(3S,4R)-4-{[(3,4-dichloro-5-methyl-1H-pyrrol-2-yl)carbonyl]amino}-3-methylpiperidin-1-yl]-4-{5-[4-(tetrahydrofuran-2-ylmethyl)piperazin-1-yl]pyrazin-2-yl}-1,3-thiazole-5-carboxylic acid] | 116% |
| CCCO[C@H]1CN(c2nc(-c3ncccc3F)c(C(=O)O)s2)CC[C@H]1NC(=O)c1[nH]c(C)c(Cl)c1C#N [Example 210, 2-[(3S,4R)-4-{[(4-chloro-3-cyano-5-methyl-1H-pyrrol-2-yl)carbonyl]amino}-3-propoxypiperidin-1-yl]-4-(3-fluoropyridin-2-yl)-1,3-thiazole-5-carboxylic acid] | 109% |
| CCO[C@H]1CN(c2nc(-c3cnc(N4CCN(CCN(CC)CC)CC4)cn3)c(C(=O)O)s2)CC[C@H]1NC(=O)c1[nH]c(C)c(Cl)c1Cl [Example 101] | 117% |
| COCCNc1cnc(-c2nc(N3CC[C@@H](NC(=O)c4[nH]c(C)c(Cl)c4Cl)[C@@H](OC)C3)sc2C(=O)O)cn1 [Example 128] | 110% |
| CCO[C@H]1CN(c2nc(-c3cnc(N4CCN(CC)CC4)cn3)c(C(=O)O)s2)CC[C@H]1NC(=O)c1[nH]c(C)c(Cl)c1Cl [Example 100] | 102% |
| CO[C@H]1CN(c2nc(-c3nccc(N4CCN(CC(C)C)CC4)n3)c(C(=O)O)s2)CC[C@H]1NC(=O)c1[nH]c(C)c(Cl)c1Cl [Example 192, 2-[(3S,4R)-4-{[(3,4-dichloro-5-methyl-1H-pyrrol-2-yl)carbonyl]amino}-3-methoxypiperidin-1-yl]-4-{4-[4-(2-methylpropyl)piperazin-1-yl]pyrimidin-2-yl}-1,3-thiazole-5-carboxylic acid] | 108% |
| CCO[C@H]1CN(c2nc(-c3cnccn3)c(C(=O)O)s2)CC[C@H]1NC(=O)c1[nH]c(C)c(Cl)c1C#N [Example 15] | 98% |
| CO[C@H]1CN(c2nc(-c3nccc(N4CCOCC4)n3)c(C(=O)O)s2)CC[C@H]1NC(=O)c1[nH]c(C)c(Cl)c1Cl [Example 190, 2-[(3S,4R)-4-{[(3,4-dichloro-5-methyl-1H-pyrrol-2-yl)carbonyl]amino}-3-methoxypiperidin-1-yl]-4-[4-(morpholin-4-yl)pyrimidin-2-yl]-1,3-thiazole-5-carboxylic acid] | 100% |
| CCN1CCN(c2cnc(-c3nc(N4CC[C@@H](NC(=O)c5[nH]c(C)c(Cl)c5Cl)[C@@H](OC)C4)sc3C(=O)O)cn2)CC1 [Example 138] | 103% |
| CCO[C@H]1CN(c2nc(-c3ncnn3C)c(C(=O)O)s2)CC[C@H]1NC(=O)c1[nH]c(C)c(Cl)c1Cl [Example 8] | 100% |
| CO[C@H]1CN(c2nc(-c3nccc(N4CCCCC4)n3)c(C(=O)O)s2)CC[C@H]1NC(=O)c1[nH]c(C)c(Cl)c1Cl [Example 189, 2-[(3S,4R)-4-{[(3,4-dichloro-5-methyl-1H-pyrrol-2-yl)carbonyl]amino}-3-methoxypiperidin-1-yl]-4-[4-(piperidin-1-yl)pyrimidin-2-yl]-1,3-thiazole-5-carboxylic acid] | 106% |
| CO[C@H]1CN(c2nc(-c3cnc(NCCN4CCOCC4)cn3)c(C(=O)O)s2)CC[C@H]1NC(=O)c1[nH]c(C)c(Cl)c1Cl [Example 130] | 107% |
| C=CCO[C@H]1CN(c2nc(-c3ncnn3C)c(C(=O)O)s2)CC[C@H]1NC(=O)c1[nH]c(C)c(Cl)c1C#N [Example 5] | 5% |
| CO[C@H]1CN(c2nc(-c3cnc(NCCN(C)C)cn3)c(C(=O)O)s2)CC[C@H]1NC(=O)c1[nH]c(C)c(Cl)c1Cl [Example 132] | 103% |
| COCC(COC)Nc1cnc(-c2nc(N3CC[C@@H](NC(=O)c4[nH]c(C)c(Cl)c4Cl)[C@@H](OC)C3)sc2C(=O)O)cn1 [Example 129] | 103% |
| CO[C@H]1CN(c2nc(-c3cnc(N4CCOCC4)cn3)c(C(=O)O)s2)CC[C@H]1NC(=O)c1[nH]c(C)c(Cl)c1Cl [Example 125] | 111% |
| CO[C@@H]1CN(c2nc(-c3cnc(N4CCN(C)CC4)cn3)c(C(=O)O)s2)CC[C@@H]1NC(=O)c1[nH]c(C)c(Cl)c1Cl [Example 61, 2-[(3R,4S)-4-{[(3,4-dichloro-5-methyl-1H-pyrrol-2-yl)carbonyl]amino}-3-methoxypiperidin-1-yl]-4-[5-(4-methylpiperazin-1-yl)pyrazin-2-yl]-1,3-thiazole-5-carboxylic acid] | 105% |
| CO[C@H]1CN(c2nc(-c3cnc(N4CCN(CC5CCCN(C)C5)CC4)cn3)c(C(=O)O)s2)CC[C@H]1NC(=O)c1[nH]c(C)c(Cl)c1Cl (stereo partly drawn) [Example 135] | 98% |
